According to PubChem BioAssay (NCI):
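Dose response: 5 concentrations. Exposure: 48 h. Format: 96-well plates. Endpoint: linear interpolation; highest concentration if not reached. TGI is the concentration that stops growth completely.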

Assays:
Assay in all cases: NCI-60 cell line screen, 48 h
[1] = system: MOLT-4 leukemia
[2] = system: CAKI-1 renal
[3] = system: COLO 205 colon
[4] = system: OVCAR-4 ovarian
[5] = system: 786-0 renal
[6] = system: HCC-2998 colon
[7] = system: SF-268 CNS
[8] = system: K-562 leukemia
[9] = system: CCRF-CEM leukemia
[10] = system: RPMI-8226 leukemia
[11] = system: SN12C renal
[12] = system: SF-295 CNS
[13] = system: HOP-62 NSCLC
[14] = system: UO-31 renal
[15] = system: SK-MEL-2 melanoma
[16] = system: SW-620 colon
[17] = system: SNB-75 CNS
[18] = system: OVCAR-3 ovarian
[19] = system: UACC-62 melanoma
[20] = system: UACC-257 melanoma
[21] = system: SNB-78 CNS
[22] = system: SK-OV-3 ovarian
[23] = system: SK-MEL-5 melanoma
[24] = system: A549 NSCLC
[25] = system: NCI-H522 lung
[26] = system: HL-60(TB) leukemia
[27] = system: HT29 colon
[28] = system: SR leukemia
[29] = system: NCI-H226 lung
[30] = system: EKVX NSCLC
[31] = system: U251 CNS
[32] = system: SK-MEL-28 melanoma
[33] = system: SNB-19 CNS
[34] = system: OVCAR-5 ovarian
[35] = system: DLD-1 colon
[36] = system: M19-MEL melanoma
[37] = system: LXFL 529 NSCLC
[38] = system: A498 renal
[39] = system: M14 melanoma
[40] = system: HCT-116 colon
[41] = system: OVCAR-8 ovarian
[42] = system: NCI-H23 lung
[43] = system: TK-10 renal
[44] = system: NCI-H460 lung
[45] = system: MALME-3M melanoma
[46] = system: XF 498 CNS
[47] = system: DMS 114 small cell lung
[48] = system: ACHN renal
[49] = system: RXF 393 renal
[50] = system: HCT-15 colon
[51] = system: HOP-18 NSCLC
[52] = system: SF-539 CNS
[53] = system: DMS 273 small cell lung
[54] = system: HOP-92 NSCLC
[55] = system: KM20L2 colon
[56] = system: IGROV1 ovarian
[57] = system: LOX IMVI melanoma
[58] = system: KM12 colon

**Q.** What does the source list for N#CC(c1ccccn1)c1nc2ccccc2[nH]1 (centres undefined)?
**A.** TGI [1]: > 100 µM; TGI [2]: > 100 µM; TGI [3]: > 100 µM; TGI [4]: > 100 µM; TGI [5]: > 100 µM; TGI [6]: > 100 µM; TGI [7]: > 100 µM; TGI [8]: > 100 µM; TGI [9]: > 100 µM; TGI [10]: > 100 µM; TGI [11]: > 100 µM; TGI [12]: > 100 µM; TGI [13]: > 100 µM; TGI [14]: > 100 µM; TGI [15]: > 100 µM; TGI [16]: > 100 µM; TGI [17]: > 100 µM; TGI [18]: > 100 µM; TGI [19]: > 100 µM; TGI [20]: > 100 µM; TGI [21]: > 100 µM; TGI [22]: > 100 µM; TGI [23]: > 100 µM; TGI [24]: > 100 µM; TGI [25]: > 100 µM; TGI [26]: > 100 µM; TGI [27]: > 100 µM; TGI [28]: > 100 µM; TGI [29]: > 100 µM; TGI [30]: > 100 µM; TGI [31]: > 100 µM; TGI [32]: > 100 µM; TGI [33]: > 100 µM; TGI [34]: > 100 µM; TGI [35]: > 100 µM; TGI [36]: > 100 µM; TGI [37]: > 100 µM; TGI [38]: > 100 µM; TGI [39]: > 100 µM; TGI [40]: > 100 µM; TGI [41]: > 100 µM; TGI [42]: > 100 µM; TGI [43]: > 100 µM; TGI [44]: > 100 µM; TGI [45]: > 100 µM; TGI [46]: > 100 µM; TGI [47]: > 100 µM; TGI [48]: > 100 µM

**Q.** Which TGI [1] does the source give for Cc1ccccc1NC(=O)C(=O)C(C#N)c1ccccc1C (centres undefined) here?
**A.** Its TGI is over 100 µM.

**Q.** What about the TGI [2] of the same compound?
**A.** Its TGI is over 100 µM.

**Q.** What about the TGI [3] of the same compound?
**A.** Its TGI is over 100 µM.

**Q.** And the TGI [5]?
**A.** Its TGI is over 100 µM.

**Q.** What about the TGI [6] of the same compound?
**A.** The TGI was over 100 µM.

**Q.** What about the TGI [7] of the same compound?
**A.** Its TGI is over 100 µM.

**Q.** And the TGI [8]?
**A.** The TGI was 61.5 µM.

**Q.** And the TGI [49]?
**A.** Its TGI is over 100 µM.

**Q.** What about the TGI [9] of the same compound?
**A.** Its TGI is 89.8 µM.

**Q.** And the TGI [10]?
**A.** Its TGI is over 100 µM.

**Q.** What about the TGI [11] of the same compound?
**A.** Its TGI is over 100 µM.

**Q.** What about the TGI [50] of the same compound?
**A.** Its TGI is over 100 µM.

**Q.** What about the TGI [51] of the same compound?
**A.** The TGI was over 100 µM.

**Q.** And the TGI [12]?
**A.** Its TGI is over 100 µM.

**Q.** And the TGI [13]?
**A.** The TGI was over 100 µM.

**Q.** What about the TGI [14] of the same compound?
**A.** Its TGI is over 100 µM.

**Q.** What about the TGI [15] of the same compound?
**A.** Its TGI is over 100 µM.

**Q.** And the TGI [16]?
**A.** The TGI was 36.5 µM.

**Q.** What about the TGI [17] of the same compound?
**A.** Its TGI is over 100 µM.

**Q.** And the TGI [18]?
**A.** The TGI was over 100 µM.

**Q.** What about the TGI [19] of the same compound?
**A.** Its TGI is over 100 µM.

**Q.** What about the TGI [20] of the same compound?
**A.** Its TGI is over 100 µM.

**Q.** What about the TGI [21] of the same compound?
**A.** Its TGI is over 100 µM.

**Q.** What about the TGI [22] of the same compound?
**A.** Its TGI is over 100 µM.

**Q.** And the TGI [23]?
**A.** The TGI was over 100 µM.

**Q.** What about the TGI [52] of the same compound?
**A.** The TGI was over 100 µM.

**Q.** What about the TGI [24] of the same compound?
**A.** The TGI was over 100 µM.

**Q.** And the TGI [25]?
**A.** Its TGI is over 100 µM.

**Q.** And the TGI [26]?
**A.** The TGI was over 100 µM.

**Q.** What about the TGI [53] of the same compound?
**A.** Its TGI is over 100 µM.

**Q.** And the TGI [27]?
**A.** Its TGI is over 100 µM.

**Q.** And the TGI [28]?
**A.** Its TGI is over 100 µM.

**Q.** What about the TGI [29] of the same compound?
**A.** The TGI was over 100 µM.

**Q.** And the TGI [54]?
**A.** The TGI was over 100 µM.

**Q.** And the TGI [30]?
**A.** The TGI was over 100 µM.

**Q.** What about the TGI [31] of the same compound?
**A.** The TGI was over 100 µM.

**Q.** What about the TGI [32] of the same compound?
**A.** Its TGI is over 100 µM.

**Q.** And the TGI [33]?
**A.** The TGI was over 100 µM.

**Q.** And the TGI [55]?
**A.** The TGI was over 100 µM.

**Q.** What about the TGI [34] of the same compound?
**A.** Its TGI is over 100 µM.

**Q.** What about the TGI [35] of the same compound?
**A.** Its TGI is over 100 µM.

**Q.** What about the TGI [56] of the same compound?
**A.** The TGI was over 100 µM.

**Q.** What about the TGI [37] of the same compound?
**A.** The TGI was over 100 µM.

**Q.** What about the TGI [38] of the same compound?
**A.** Its TGI is over 100 µM.

**Q.** What about the TGI [39] of the same compound?
**A.** Its TGI is over 100 µM.

**Q.** What about the TGI [40] of the same compound?
**A.** The TGI was over 100 µM.

**Q.** What about the TGI [41] of the same compound?
**A.** Its TGI is over 100 µM.

**Q.** What about the TGI [42] of the same compound?
**A.** Its TGI is over 100 µM.

**Q.** What about the TGI [43] of the same compound?
**A.** Its TGI is over 100 µM.

**Q.** What about the TGI [57] of the same compound?
**A.** The TGI was 39.4 µM.

**Q.** What about the TGI [44] of the same compound?
**A.** The TGI was over 100 µM.

**Q.** What about the TGI [45] of the same compound?
**A.** Its TGI is over 100 µM.

**Q.** And the TGI [58]?
**A.** The TGI was over 100 µM.

**Q.** What about the TGI [46] of the same compound?
**A.** The TGI was over 100 µM.

**Q.** And the TGI [47]?
**A.** The TGI was over 100 µM.

**Q.** And the TGI [48]?
**A.** Its TGI is over 100 µM.
